US9896718B2, “Herbicide tolerant cotton event pDAB4468.18.07.1” (Dow AgroSciences LLC, priority 2012, dated 2018)
Like-named read-outs stand apart in the source and are kept apart here.

Tests used:
[1] = system: cotton event pDAB4468.18.07.1; assay: Tolerance to 2,4-D in field trials (percent visual injury after postemergence application); assay type: in vivo, Gossypium hirsutum; settings: for Percent visual injury: postemergence, 2-4 leaf cotton, field
Description: The application of 2,4-D on cotton plants at this stage of development represents a herbicide application timing typically utilized to achieve satisfactory weed control by cotton growers.
2,4-D tolerance was measured by assessing cotton plants for injury at 0-1 day after application (DAA), 7-8 DAA, 12-16 DAA, and 24-32 DAA. Measurements for the 0-1 day time increment were taken from 6-24 hours after the application. […] The ratings were a composite score for any herbicide symptomology including epinasty, chlorosis, leaf necrosis and plant death. Herbicide symptomology present at 0-1 DAA was primarily epinasty and symptoms at later evaluations were primarily chlorosis and necrosis.
(§1) Field trials were conducted at eleven locations across the United States in typical cotton producing areas of Alabama, Arkansas, California, Georgia, Louisiana, Mississippi, North Carolina, South Carolina, and Tennessee. Trials were designed with four replications per treatment. Each replication was separated by a bare-soil alley 10-15 feet wide. Plot size for individual treatments was 2 rows by 20 feet long with rows typically spaced 36-40 inches apart. Experimental treatments consisted of cotton event pDAB4468.18.07.1 sprayed with 2,4-D amine (Weedar 64™, NuFarm, Burr Ridge, Ill.) at either 0, 1120, 2240, or 4480 grams acid equivalent per hectare (g ae/ha) applied in 15 gallons per acre of final spray solution. A non-transformed cotton comparator treatment was not included in these experiments since treatment with 2,4-D at rates much lower than the lowest rate tested (1120 g ae/ha) are known to result in plant death.

[2] = system: cotton event pDAB4468.18.07.1; assay: Agronomic characterization in field trials with and without herbicide application; assay type: in vivo, Gossypium hirsutum; settings: standard field application rates, 2010 field trials
From the text: The agronomic characteristics of cotton event pDAB4468.18.07.1 were quantified in field trials conducted across geographically different locations throughout the cotton belt in 2010. These studies compared the agronomic performance of cotton event pDAB4468.18.07.1 (with and without applications of the herbicides 2,4-D and glufosinate) to the non-transgenic near-isoline control, Coker 310. No agronomically meaningful unintended differences were observed between cotton event pDAB4468.18.07.1 and the Coker 310 control plants. […] Additionally, the agronomic performance of cotton event pDAB4468.18.07.1 was not altered as a result of the application of the herbicides, 2,4-D and glufosinate, as compared to the cotton event pDAB4468.18.07.1 plants which were not sprayed with the herbicide treatments. […]
Seeds of cotton event pDAB4468.18.07.1 and seeds of the near-isoline control line, Coker 310, were planted at a rate of 80 seeds per 20 ft row with a row spacing of 34-38 inches (86.36 cm-96.52 cm). […] The measured agronomic characteristics were equivalent for cotton event pDAB4468.18.07.1 as compared to the Coker 310 near-isoline control plants for all of the agronomic characteristics measured and statistically analyzed. […]

non-transformed cotton = settings: rates much lower than the lowest rate tested (1120 g ae/ha); known; cited from earlier work
[3] = system: cotton event pDAB4468.18.07.1; settings: for % Injury: cotton event pDAB4468.18.07.1, 3 leaf stage
Description: The tolerance of cotton event pDAB4468.18.07.1 to postemergence applications of the pyridyloxyacetic acid herbicides, triclopyr and fluroxypyr, was studied in greenhouse trials. Herbicide tolerance was assessed following a single postemergence application of triclopyr or fluroxypyr.
Seeds from cotton event pDAB4468.18.07.1 were heat treated in a water bath at 82.5° C. for 1 minute and then planted in metro mix 360 media and grown in a greenhouse. The temperatures in the greenhouse averaged 27° C. and the photoperiod was set at 16 hours of light and eight hours of dark, with maximum light intensity. Plants were allowed to grow until the 3 leaf stage of development and a non-randomized study was conducted with three replications and three treatments for each herbicide. Plants were sprayed in a track sprayer calibrated to deliver 187 L/ha of the commercial formulations of triclopyr (Garton 4™, Dow AgroSciences, Indianapolis, Ind.) and fluroxypyr (Starane™, Dow AgroSciences, Indianapolis, Ind.). A non-transformed Coker 310 variety of cotton was used as a negative control. Visual injury assessment was taken 3 DAA (days after application) and 11 DAA comparing each rate of herbicide. Injury was assessed visually as percentage of epinastic cotton-plant foliage using a linear percentage scale […] where 0% represents no visible herbicide injury and 100% represents plant death.

[4] = system: non-transformed Coker 310 variety of cotton; assay: Tolerance to triclopyr and fluroxypyr in greenhouse trials (percent visual injury), negative control plants; assay type: in vivo; settings: 3 leaf stage
Description: Seeds from cotton event pDAB4468.18.07.1 were heat treated in a water bath at 82.5° C. for 1 minute and then planted in metro mix 360 media and grown in a greenhouse. The temperatures in the greenhouse averaged 27° C. and the photoperiod was set at 16 hours of light and eight hours of dark, with maximum light intensity. Plants were allowed to grow until the 3 leaf stage of development and a non-randomized study was conducted with three replications and three treatments for each herbicide. Plants were sprayed in a track sprayer calibrated to deliver 187 L/ha of the commercial formulations of triclopyr (Garton 4™, Dow AgroSciences, Indianapolis, Ind.) and fluroxypyr (Starane™, Dow AgroSciences, Indianapolis, Ind.). A non-transformed Coker 310 variety of cotton was used as a negative control. Visual injury assessment was taken 3 DAA (days after application) and 11 DAA comparing each rate of herbicide. Injury was assessed visually as percentage of epinastic cotton-plant foliage using a linear percentage scale (1-100%) where 0% represents no visible herbicide injury and 100% represents plant death.

[5] = system: cotton event pDAB4468.18.07.1; assay: Tolerance to glufosinate in field trials (percent visual injury after postemergence application); assay type: in vivo, Gossypium hirsutum; settings: for Percent visual injury: postemergence, 6-8 leaf cotton, field
Description: Glufosinate tolerance was measured by assessing cotton plants for injury at 2-4 days after application (DAA), 7-9 DAA, 13-19 DAA and 22-29 DAA. […] The ratings were a composite score for any herbicide symptomology including chlorosis, leaf necrosis, stunting and plant death. Herbicide symptomology (where present) was primarily chlorosis and necrosis.
as §1, with “glufosinate ammonium (Ignite 280 SL™, Bayer, Research Triangle, N.C.)” for “2,4-D amine (Weedar 64™, NuFarm, Burr Ridge, Ill.)”, “542, 1084,” for “1120, 2240,”, “2168” for “4480”, “glufosinate” for “2,4-D”, “(542” for “(1120”, “would be expected” for “are known”

CNC.O=C(O)COc1ccc(Cl)cc1Cl [2,4-D]
herbicide injury noted in the experiments ([1]; 1120-4480 g ae/ha, with the exception of transient epinasty 0-1 DAA): no agronomically-significant herbicide injury | Percent visual injury ([1]; 1120 g ae/ha, 0-1 DAA): 5.0% | Percent visual injury ([1]; 1120 g ae/ha, 7-8 DAA): 2.3% | Percent visual injury ([1]; 1120 g ae/ha, 12-16 DAA): 1.1% | Percent visual injury ([1]; 1120 g ae/ha, 24-32 DAA): 0.0% | Percent visual injury ([1]; 2240 g ae/ha, 0-1 DAA): 11.7% | Percent visual injury ([1]; 2240 g ae/ha, 7-8 DAA): 4.9% | Percent visual injury ([1]; 2240 g ae/ha, 12-16 DAA): 2.7% | Percent visual injury ([1]; 2240 g ae/ha, 24-32 DAA): 0.4% | crop injury beyond the 7-8 DAA evaluation interval ([1]; 4480 g ae/ha (>4× rate required for broad spectrum weed control)): little crop injury | Percent visual injury ([1]; 4480 g ae/ha, 0-1 DAA): 21.0% | Percent visual injury ([1]; 4480 g ae/ha, 7-8 DAA): 15.1% | Percent visual injury ([1]; 4480 g ae/ha, 12-16 DAA): 8.0% | Percent visual injury ([1]; 4480 g ae/ha, 24-32 DAA): 2.2% | agronomic performance of cotton event after herbicide application vs unsprayed plants [2]: not altered | result of treatment of non-transformed cotton (non-transformed cotton): plant death

Nc1c(Cl)c(F)nc(OCC(=O)O)c1Cl [Fluroxypyr, fluroxypyr]
level of herbicide to which tolerance is provided ([3]; in vivo): up to 280 g ae/ha

O=C(O)COc1nc(Cl)c(Cl)cc1Cl [Triclopyr, triclopyr]
tolerance of the plants ([3]; 3 DAA, greenhouse): moderate levels of tolerance | % Injury ([3]; 140 g ae/ha, 3 DAA, greenhouse): 11.8 b % | % Injury ([3]; 140 g ae/ha, 11 DAA, greenhouse): 3.0 a % | % Injury ([3]; 280 g ae/ha, 3 DAA, greenhouse): 17.0 a % | % Injury ([3]; 280 g ae/ha, 11 DAA, greenhouse): 6.3 a % | % Injury ([3]; 560 g ae/ha, 3 DAA, greenhouse): 19.3 a % | % Injury ([3]; 560 g ae/ha, 11 DAA, greenhouse): 3.5 a % | tolerance of the plants compared to the non-transformed control ([3]; by 11 DAA, recovered from the initial epinastic response, greenhouse): robust tolerance | % Injury ([4]; 140 g ae/ha, 3 DAA): 33.8 a % | % Injury ([4]; 140 g ae/ha, 11 DAA): 36.3 b % | % Injury ([4]; 280 g ae/ha, 3 DAA): 33.8 a % | % Injury ([4]; 280 g ae/ha, 11 DAA): 40.0 ab % | % Injury ([4]; 560 g ae/ha, 3 DAA): 36.3 a % | % Injury ([4]; 560 g ae/ha, 11 DAA): 48.8 a %

CP(=O)(O)CCC(N)C(=O)O (stereo not shown) [glufosinate]
herbicide injury noted in the experiments ([5]; 542-2168 g ae/ha, with the exception of transient chlorosis at 2168 g ae/ha at 2-4 & 7-9 DAA): no agronomically-significant herbicide injury | Percent visual injury ([5]; 542 g ae/ha, 2-4 DAA): 3.1% | Percent visual injury ([5]; 542 g ae/ha, 7-9 DAA): 2.3% | Percent visual injury ([5]; 542 g ae/ha, 13-19 DAA): 0.1% | Percent visual injury ([5]; 542 g ae/ha, 22-29 DAA): 0.1% | Percent visual injury ([5]; 1084 g ae/ha, 2-4 DAA): 7.6% | Percent visual injury ([5]; 1084 g ae/ha, 7-9 DAA): 4.8% | Percent visual injury ([5]; 1084 g ae/ha, 13-19 DAA): 0.1% | Percent visual injury ([5]; 1084 g ae/ha, 22-29 DAA): 0.0% | crop injury beyond the 7-9 DAA evaluation interval ([5]; 2168 g ae/ha (>4× rate required for broad spectrum weed control)): little crop injury | Percent visual injury ([5]; 2168 g ae/ha, 2-4 DAA): 14.8% | Percent visual injury ([5]; 2168 g ae/ha, 7-9 DAA): 10.8% | Percent visual injury ([5]; 2168 g ae/ha, 13-19 DAA): 2.2% | Percent visual injury ([5]; 2168 g ae/ha, 22-29 DAA): 0.3% | agronomic performance of cotton event after herbicide application vs unsprayed plants [2]: not altered
